Patent US7196100B2, “Opioid receptor antagonists” (Eli Lilly and Company, priority 2004, dated 2007)

How the values were obtained:
Type in all cases: biochemical
[1] = target: mu opioid receptor (MOR) (Homo sapiens, UniProt P35372); experiment: GTP-γ-S Binding Assay (SPA-based), antagonist mode vs DAMGO; conditions: In vitro antagonism; agonist DAMGO 1 micromolar; Kb by Cheng-Prusoff equation
Method: (§1) An SPA—based GTP-γ-S assay format was developed based on previous opioid (Emmerson et al., J. Pharm Exp Ther 278, 1121, 1996; Horng et al., Society for Neuroscience Abstracts, 434.6, 2000) and muscarinic (DeLapp et al., JPET 289, 946, 1999) assay formats. Membranes were re-suspended in 20 mM HEPES, 100 mM NaCl, 5 mM MgCl2, 1 mM DTT, and 1 mM EDTA. Fifty (50) […] of GTP-γ-[35S], compound, membrane suspension (20 microgram/well), and wheat germ agglutinin coated SPA beads (1 mg/well) were added to clear bottom 96 well assay plates. GDP ([…]) was added to the membrane solution prior to addition to the assay plates. Plates were sealed and incubated for four hours at room temperature then placed in a refrigerator overnight to allow the beads to settle. Signal stability at 4° C. was determined to be >60 hours. Plates were warmed to room temperature and counted in a Wallac Microbeta scintillation counter. For antagonist assays, specific agonists were added at the following concentrations: (MOR) DAMGO 1 micromolar, (DOR) DPDPE 30 nM, (KOR) U69593 300 nM. Kb's were determined by Cheng-Prusoff equation (see Cheng and Prusoff, Biochem. Pharmacol. 22, 3099, 1973).

[2] = target: kappa opioid receptor (KOR) (Homo sapiens, UniProt P41145); experiment: GTP-γ-S Binding Assay (SPA-based), antagonist mode vs U69593; conditions: In vitro antagonism; agonist U69593 300 nM; Kb by Cheng-Prusoff equation
Sequence of kappa opioid receptor (KOR) (P41145 whole entry): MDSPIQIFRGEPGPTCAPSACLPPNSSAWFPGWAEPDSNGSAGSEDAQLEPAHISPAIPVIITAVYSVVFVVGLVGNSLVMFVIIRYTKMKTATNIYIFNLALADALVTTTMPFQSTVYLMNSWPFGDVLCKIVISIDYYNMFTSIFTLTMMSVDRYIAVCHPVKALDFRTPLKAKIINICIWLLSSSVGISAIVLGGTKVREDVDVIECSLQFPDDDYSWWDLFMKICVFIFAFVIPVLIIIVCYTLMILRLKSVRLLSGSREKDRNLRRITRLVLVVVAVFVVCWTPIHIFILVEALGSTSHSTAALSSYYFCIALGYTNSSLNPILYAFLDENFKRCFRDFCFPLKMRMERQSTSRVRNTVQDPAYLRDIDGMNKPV
Method: as §1

[3] = target: delta opioid receptor (DOR) (Homo sapiens, UniProt P41143); experiment: GTP-γ-S Binding Assay (SPA-based), antagonist mode vs DPDPE; conditions: In vitro antagonism; agonist DPDPE 30 nM; Kb by Cheng-Prusoff equation
Sequence of delta opioid receptor (DOR) (P41143 whole entry): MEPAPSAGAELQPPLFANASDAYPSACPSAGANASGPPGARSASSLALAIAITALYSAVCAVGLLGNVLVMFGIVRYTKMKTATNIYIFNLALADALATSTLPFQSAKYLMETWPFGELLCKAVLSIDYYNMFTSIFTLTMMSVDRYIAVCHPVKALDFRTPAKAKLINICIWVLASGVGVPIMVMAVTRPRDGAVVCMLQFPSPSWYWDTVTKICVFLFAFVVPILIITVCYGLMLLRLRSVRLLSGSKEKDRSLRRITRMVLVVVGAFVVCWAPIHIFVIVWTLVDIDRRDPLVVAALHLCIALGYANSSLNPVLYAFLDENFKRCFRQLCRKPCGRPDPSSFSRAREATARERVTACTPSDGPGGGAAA
Method: as §1

Sequence of mu opioid receptor (MOR) (P35372 whole entry): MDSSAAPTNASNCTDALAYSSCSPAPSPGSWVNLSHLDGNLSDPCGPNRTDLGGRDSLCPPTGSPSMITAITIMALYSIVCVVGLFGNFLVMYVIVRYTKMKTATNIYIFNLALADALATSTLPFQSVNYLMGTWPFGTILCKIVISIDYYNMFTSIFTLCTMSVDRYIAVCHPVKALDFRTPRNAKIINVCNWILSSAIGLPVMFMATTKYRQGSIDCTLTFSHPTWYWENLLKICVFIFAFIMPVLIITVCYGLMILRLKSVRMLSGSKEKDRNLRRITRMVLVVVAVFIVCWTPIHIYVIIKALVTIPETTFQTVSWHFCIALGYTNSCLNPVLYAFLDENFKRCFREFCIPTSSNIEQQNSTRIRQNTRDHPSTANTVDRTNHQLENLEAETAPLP

Row | SMILES | Kb [1] [µM] | Kb [2] [µM] | Kb [3] [µM]
1 | NC(=O)c1ccc(OC2CCC(NCCC3CCOCC3)CC2)nc1 (racemic) [Example 1, ±6-{4-[2-(Tetrahydro-pyran-4-yl)-ethylamino]-cyclohexyloxy}-nicotinamide] | 0.566 | 0.601 | 0.819
2 | NC(=O)c1ccc(OC2CCN(Cc3ccccn3)CC2)nc1 [Example 6, 6-(1-Pyridin-2-ylmethyl-piperidin-4-yloxy)-nicotinamide] | > 1.8 | 0.43 | > 7.3
3 | CC(C)CCNC1CCC(Oc2ccc(C(N)=O)cn2)CC1 (racemic) [Example 2, ±6-[4-(3-Methyl-butylamino)-cyclohexyloxy]-nicotinamide] | 0.594 | 0.62 | 0.996

Other lines, results leading:

Row | Kb [1] [µM] | Kb [2] [µM] | Kb [3] [µM] | SMILES
4 | 1.12 | 0.93 | > 7.3 | NC(=O)c1ccc(OC2CCN(Cc3ccccc3)CC2)cc1 [Example 9, 4-(1-Benzyl-piperidin-4-yloxy)-benzamide]
5 | > 1.85 | 0.937 | > 7.3 | NC(=O)c1ccc(OC2CCN(Cc3cc4ccccc4[nH]3)CC2)nc1 [Example 8, 6-[1-(1H-Indol-2-ylmethyl)-piperidin-4-yloxy]-nicotinamide]
6 | 0.453 | 0.999 | 1.96 | NC(=O)c1ccc(OC2CCN(CCCc3ccccc3)CC2)cc1 [Example 10, 4-[1-(3-Phenyl-propyl)-piperidin-4-yloxy]-benzamide]
7 | 1.78 | 1.05 | > 7.3 | NC(=O)c1ccc(OC2CCN(CC3CC3)CC2)nc1 [Example 7, 6-(1-Cyclopropylmethyl-piperidin-4-yloxy)-nicotinamide]
